One compound from patent publication US20100310541A1, “Compositions and Methods for Reducing the Toxicity of Certain Toxins” (IRONWOOD PHARMACEUTICALS, INC., priority 2007, published 2010) can be followed below.

“Also recorded” adds a separate entry of the source.

This experiment addresses Escherichia coli heat stable enterotoxin (STa; SEQ ID NO: 1) (Escherichia coli, UniProt P07965). Format: biochemical. The settings on record: pH 8.

With `O[C@H](CS)[C@H](O)CS` (racemic) [DTT, dithiothreitol], the “effect on SEQ ID NO:1 (LC/MS, FIG. 3)” value is reported as “no visible effect”; the “reduction of SEQ ID NO:1 disulfide bonds (FIG. 5)” value is recorded as “a small amount of fully reduced peptide; also recorded: complete reduction”; the “reduction of native SEQ ID NO:1 based on peak area (FIG. 4)” value was 47%.
